Laboratory results published in article PMC5840146, “Structure-Activity Relationship Analysis of 3-Phenylcoumarin-Based Monoamine Oxidase B Inhibitors” (Frontiers in Chemistry, 2018).
Where two headings read alike, the source gives them in different places.

Tests used:
MAO-B [1] = target: T1, MAO-B (Homo sapiens, UniProt P27338); assay: MAO-B inhibition of prior 3-phenylcoumarins (literature data); format: biochemical; settings: LiPE = pIC50 - QPlogPo/w, literature IC50
T1 construct: purchased Sigma-Aldrich
T1 sequence (P27338 1-520): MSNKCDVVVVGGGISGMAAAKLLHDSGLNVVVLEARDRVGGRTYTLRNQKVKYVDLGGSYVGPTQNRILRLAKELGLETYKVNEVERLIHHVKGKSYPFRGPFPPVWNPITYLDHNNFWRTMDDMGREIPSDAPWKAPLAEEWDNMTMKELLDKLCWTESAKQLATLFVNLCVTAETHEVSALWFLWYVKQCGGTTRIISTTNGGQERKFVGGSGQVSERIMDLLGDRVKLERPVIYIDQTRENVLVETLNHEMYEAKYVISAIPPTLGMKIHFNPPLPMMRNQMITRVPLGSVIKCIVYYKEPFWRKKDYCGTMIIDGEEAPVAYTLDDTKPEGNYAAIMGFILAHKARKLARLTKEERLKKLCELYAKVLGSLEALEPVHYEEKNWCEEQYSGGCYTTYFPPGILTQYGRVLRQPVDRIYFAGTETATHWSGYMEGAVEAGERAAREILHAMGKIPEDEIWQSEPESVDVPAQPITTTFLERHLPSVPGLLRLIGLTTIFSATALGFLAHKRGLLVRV

MAO-B [2] = target: T1, MAO-B; settings: cited from earlier work; for pIC50: MAO-B; for IC50: read-out: MAO-B inhibition IC50
MAO-B [3] = target: T1, MAO-B; assay: continuous spectrophotometric MAO-B inhibition assay; format: biochemical; settings: 10 µM, 2h
Protocol: (§1) Both monoamine oxidase A (MAO-A) and B (MAO-B) protein and the reagents for the chromogenic solution of vanillic acid (4-hydroxy-3-methoxylbenzoic acid, 97% purity), 4-aminoantipyrine (reagent grade), horseradish peroxidase and the substrate tyramine hydrochloride (minimum 99% purity) as well as the potassium phosphate buffer, which was prepared using potassium phosphate dibasic trihydrate (≥99% ReagentPlus™) and potassium phosphate monobasic (minimum 98% purity, molecular biology tested), were purchased from Sigma-Aldrich (St. Louis, MO, USA) for the spectrophotometric assay.
(§2) The protocol for continuous spectrophotometric assay (Holt et al., [1997]) was followed in the activity measurements. The assay was performed in 0.2 M potassium phosphate buffer pH 7.6 on 96-well plates (Nunc™ 96F microwell plate without a lid, Nunc A/S, Roskilde, DK) in 200 μl total volume. The chromogenic solution containing 1 mM vanillic acid, 500 μM 4-aminoantipyrine and 8 U/ml horseradish peroxidase in 0.2 M potassium phosphate buffer pH 7.6 was mixed anew for each measurement. 5 mM tyramine solution was used as the substrate. In order to determine the activity of both MAO-B and MAO-A, concentration series as duplicates were prepared. The protein was combined with the chromogenic solution and incubated 30 min at 37°C. The background signal was measured using multilabel reader (Victor^TM X4, 2030 Multilabel Reader, PerkinElmer, Waltham, MA, USA) at A490 before reaching the total 200 μl volume by adding 20 μl of tyramine to final concentration of 0.5 mM on the plate. As a result, the final concentration of the chromogenic solution on the plate was 250 μM vanillic acid, 125 μM 4-aminoantipyrine and 2 U/ml horseradish peroxide. After adding the substrate, the plates were measured 300 times every 15 s using 1 s exposure time. The device was set to 37°C for the duration of the experiment.
(§3) The experiment conditions should produce absorbance change of ~0.35 (Holt et al., [1997]). […] The same wide panel of coumarin derivatives was additionally used to analyze the MAO-A inhibition at 100 μM (Table 1, Supplementary Table S1).
(§4) The measured data was then fitted on a curve using non-linear regression with the equation for log[inhibitor] vs. response. The IC50 values were therefore determined based on the curve fit. The fitted curves are shown on –log scale in Supplementary Figures S1, S2.

MAO-A = target: T2, MAO-A (Homo sapiens, UniProt P21397); assay: continuous spectrophotometric MAO-A inhibition assay; format: biochemical; settings: 100 µM, 1h
T2 construct: purchased Sigma-Aldrich
T2 sequence (P21397 1-527): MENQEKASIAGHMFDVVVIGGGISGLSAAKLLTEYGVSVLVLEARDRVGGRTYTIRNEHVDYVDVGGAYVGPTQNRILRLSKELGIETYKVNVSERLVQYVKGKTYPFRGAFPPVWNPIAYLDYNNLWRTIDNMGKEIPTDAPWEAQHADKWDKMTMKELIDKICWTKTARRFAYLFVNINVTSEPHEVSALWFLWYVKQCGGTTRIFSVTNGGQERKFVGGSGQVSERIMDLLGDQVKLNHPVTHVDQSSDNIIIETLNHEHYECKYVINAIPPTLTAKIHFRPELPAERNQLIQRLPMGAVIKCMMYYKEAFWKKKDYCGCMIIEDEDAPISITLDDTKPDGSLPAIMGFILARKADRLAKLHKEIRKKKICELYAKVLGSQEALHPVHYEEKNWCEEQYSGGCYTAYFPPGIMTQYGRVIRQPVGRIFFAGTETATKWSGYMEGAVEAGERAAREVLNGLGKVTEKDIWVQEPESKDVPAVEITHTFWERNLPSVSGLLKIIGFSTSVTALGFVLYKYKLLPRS
Protocol: as §1, §2, §3, §4

ERα = target: T3, ERα (Homo sapiens, UniProt P03372); assay: PolarScreen ER Alpha Competitor Assay (fluorescence polarization); format: binding; settings: for ER inhibition %: 10 μM
T3 construct: purchased Life Technologies
T3 sequence (P03372 1-595): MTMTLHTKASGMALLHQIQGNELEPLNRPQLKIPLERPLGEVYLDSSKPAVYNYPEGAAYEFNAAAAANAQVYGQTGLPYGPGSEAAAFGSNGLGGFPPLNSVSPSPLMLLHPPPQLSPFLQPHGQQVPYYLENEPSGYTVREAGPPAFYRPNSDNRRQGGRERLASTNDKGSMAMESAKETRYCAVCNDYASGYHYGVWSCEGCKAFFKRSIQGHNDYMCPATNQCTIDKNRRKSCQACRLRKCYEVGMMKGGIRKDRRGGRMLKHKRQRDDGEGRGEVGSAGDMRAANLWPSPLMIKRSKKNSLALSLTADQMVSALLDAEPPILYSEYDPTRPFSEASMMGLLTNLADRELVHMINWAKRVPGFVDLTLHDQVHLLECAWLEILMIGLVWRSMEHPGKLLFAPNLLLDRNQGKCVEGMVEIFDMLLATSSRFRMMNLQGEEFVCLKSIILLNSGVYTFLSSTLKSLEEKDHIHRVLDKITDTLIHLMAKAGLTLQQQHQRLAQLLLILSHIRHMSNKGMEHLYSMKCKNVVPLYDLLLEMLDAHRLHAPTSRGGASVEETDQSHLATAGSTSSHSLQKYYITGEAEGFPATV
Protocol: The pIC50 values for the derivatives (Table 1, Supplementary Table S1) were measured with green PolarScreen™ ER Alpha Competitor Assay (Life Technologies, CA, The United States of America) kit, following the manufacturer protocol as previously described (Niinivehmas et al., [2016]). The final concentration of the compounds ranged from 0.0007 to 10 000 nM in the dilution series which were performed as duplicates. The molecules were combined with 25 nM ERα and 4.5 nM fluormone in the assay buffer and placed on black low volume 384-well assay plate with NBS surface (Corning, NY, The United States of America). After mixing the assay plate, it was incubated for 2 h in RT. The fluorescence polarization was measured using excitation wave length 485 and emission wave length 535 with bandwidths of 25/20 nm on a 2104 EnVision® Multilabel Plate Reader which had EnVision Workstation version 1.7 (PerkinElmer, MA, The United States of America).

recombinant human HSD1 = target: T4, recombinant human HSD1 (Homo sapiens, UniProt P14061); assay: HSD1 inhibition by HPLC with tritium labeled estrone/estradiol; format: biochemical; settings: 1 μM
T4 construct: made in house; host or cells: Sf9 insect cells
T4 sequence (P14061 1-328): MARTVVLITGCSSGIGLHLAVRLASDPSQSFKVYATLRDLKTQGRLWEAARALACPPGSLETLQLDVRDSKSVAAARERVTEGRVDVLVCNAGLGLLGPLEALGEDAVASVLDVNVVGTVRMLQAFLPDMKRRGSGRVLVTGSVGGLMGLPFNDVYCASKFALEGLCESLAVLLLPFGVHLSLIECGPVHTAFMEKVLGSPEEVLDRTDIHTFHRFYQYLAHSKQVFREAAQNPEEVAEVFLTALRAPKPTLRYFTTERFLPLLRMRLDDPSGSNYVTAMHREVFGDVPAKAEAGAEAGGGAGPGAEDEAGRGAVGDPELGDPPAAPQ

[4] = from literature IC50 ref Matos et al., 2011a
[5] = prior 3-phenylcoumarins ref Matos et al., 2011a
[6] = from literature IC50 ref Matos et al., 2011b
[7] = prior 3-phenylcoumarins ref Matos et al., 2011b
[8] = from literature IC50 ref Serra et al., 2012
[9] = prior 3-phenylcoumarins ref Serra et al., 2012

Compound: Cc1ccc2oc(=O)c(-c3ccc(O)cc3)cc2c1 [CHEMBL577099]
- LiPE (MAO-B [1]): 4.06

Compound: COc1ccc(-c2cc3cc(C)ccc3oc2=O)cc1 [CHEMBL572233]
- LiPE (MAO-B [1]): 4.41
- pIC50 (MAO-B [2]; from literature IC50 ref Matos et al., 2009, 2011a): 7.88
- IC50 (MAO-B [2]; prior 3-phenylcoumarins ref Matos et al., 2009, 2011a): 13.1 nM

Compound: COc1ccc(-c2cc3cc(C)cc(Br)c3oc2=O)cc1 [CHEMBL1221980]
- LiPE (MAO-B [1]): 1.42
- pIC50 (MAO-B [2]; from literature IC50 ref Matos et al., 2010): 5.49
- IC50 (MAO-B [2]; prior 3-phenylcoumarins ref Matos et al., 2010): 3230 nM

Compound: COc1ccc2oc(=O)c(-c3cccc(C)c3)cc2c1 [CHEMBL1835223]
- LiPE (MAO-B [1]): 4.30
- pIC50 (MAO-B [2]; [4]): 7.77
- IC50 (MAO-B [2]; [5]): 17.1 nM

Compound: Cc1ccc(-c2cc3cc(O)ccc3oc2=O)cc1 [CHEMBL1835225]
- LiPE (MAO-B [1]): 4.42
- pIC50 (MAO-B [2]; [4]): 7.17
- IC50 (MAO-B [2]; [5]): 67.1 nM

Compound: COc1ccc(-c2c(O)c3ccccc3oc2=O)cc1Cl [CHEMBL1934675]
- LiPE (MAO-B [1]): 1.85

Compound: COc1cc(Br)cc2cc(-c3ccccc3)c(=O)oc12 [CHEMBL1777814]
- LiPE (MAO-B [1]): 3.35
- pIC50 (MAO-B [2]; [6]): 7.08
- IC50 (MAO-B [2]; [7]): 83.5 nM

Compound: COc1ccc(-c2c(O)c3ccccc3oc2=O)cc1 [CHEMBL1917495]
- LiPE (MAO-B [1]): 1.49
- pIC50 (MAO-B [2]; [8]): 4.16
- IC50 (MAO-B [2]; [9]): 69600 nM

Compound: O=c1oc2ccccc2cc1-c1ccccc1 [CHEMBL510349]
- LiPE (MAO-B [1]): 1.47
- pIC50 (MAO-B [2]; from literature IC50 ref Viña et al., 2012b): 4.93
- IC50 (MAO-B [2]; prior 3-phenylcoumarins ref Viña et al., 2012b): 11800 nM

Compound: Cc1ccc2oc(=O)c(-c3ccccc3)cc2c1 [CHEMBL1783714]
- LiPE (MAO-B [1]): 3.08
- pIC50 (MAO-B [2]; from literature IC50 ref Matos et al., 2009, 2011a, Viña et al., 2012b): 6.55
- IC50 (MAO-B [2]; prior 3-phenylcoumarins ref Matos et al., 2009, 2011a, Viña et al., 2012b): 284 nM

Compound: COc1cccc(-c2cc3cc(C)ccc3oc2=O)c1 [CHEMBL570731]
- LiPE (MAO-B [1]): 5.64
- pIC50 (MAO-B [2]; [4]): 9.10
- IC50 (MAO-B [2]; [5]): 0.8 nM

Compound: O=c1oc2c(O)cccc2cc1-c1cccc(O)c1 [derivative 43]
- MAO-B inhibition % (MAO-B [3]): 22.93%
- MAO-A inhibition % (MAO-A): 56.76%
- ER inhibition % (ERα): 0.00%

Compound: COc1ccc(-c2c(O)c3cc(Cl)ccc3oc2=O)cc1Cl [CHEMBL1934677]
- LiPE (MAO-B [1]): 1.88
- pIC50 (MAO-B [2]; [8]): 5.55
- IC50 (MAO-B [2]; [9]): 2790 nM

Compound: COc1ccc(-c2cc3cc(Br)cc(OC)c3oc2=O)cc1 [CHEMBL1777845]
- LiPE (MAO-B [1]): 5.09
- pIC50 (MAO-B [2]; [6]): 8.87
- IC50 (MAO-B [2]; [7]): 1.35 nM

Compound: O=c1oc2c(O)cccc2cc1-c1ccc(O)cc1 [derivative 44]
- MAO-B inhibition % (MAO-B [3]): 22.52%
- MAO-A inhibition % (MAO-A): 22.39%
- ER activity (in words) (ERα): prominent
- ER inhibition % (ERα): 96.18%

Compound: O=c1oc2c(Cl)cc(Cl)cc2cc1-c1ccc(F)cc1 [derivative 49]
- MAO-B inhibition % (MAO-B [3]): 10.23%
- MAO-A inhibition % (MAO-A): 0.00%
- ER inhibition % (ERα): 0.66%
- HSD1 inhibition % (recombinant human HSD1): 1.30%

Compound: O=c1oc2cc(O)cc(O)c2cc1-c1cccc(O)c1 [derivative 42]
- MAO-B inhibition % (MAO-B [3]): 23.30%
- MAO-A inhibition % (MAO-A): 48.86%
- ER inhibition % (ERα): 0.44%

Compound: O=c1oc2cc(O)ccc2cc1-c1cccc(O)c1 [derivative 40]
- MAO-B inhibition % (MAO-B [3]): 25.74%
- MAO-A inhibition % (MAO-A): 0.00%
- ER activity (in words) (ERα): prominent
- ER inhibition % (ERα): 18.58%
